Values joined by “and” are separate entries in the source; they are usually repeats but may differ in a detail not shown here. Identical values can stand only once. After the bases stand the sugars from the 5' end (letter, count) and the backbone: PS all phosphorothioate, else s phosphorothioate and o phosphodiester by linkage. Methylation of C is not given here. e = 2'-O-(2-methoxyethyl) (MOE); k = constrained ethyl (cEt); d = 2'-deoxy (DNA); m = 2'-O-methyl
How the values were obtained:
IRF4 = details: ASO
HSD17B13 = details: ASO, HepaRG

Row | Sequence | target mRNA inhibition (IRF4; SK-MEL-28, 4 µM) [%] | target mRNA inhibition (HSD17B13; 1 µM) | further results
1 | GGCAGCACCGTGTGGA (sugars k3 d10 k3, PS) | 53 |  | 
2 | CCTGAGAGTAAACTTG (sugars k3 d10 k3, PS) | 18 |  | 
3 | CTTGATAAAGGCTGAA (sugars kkkddddddddkekek, PS) |  |  | target mRNA inhibition (IRF4; MM.1R, 1 µM): 12%
4 | ACTGCTGTGTGTCAAA (sugars k3 d10 k3, PS) | -6 |  | 
5 | GATGAGATATTCCTCT (sugars k3 d10 k3, PS) |  |  | target mRNA inhibition (IRF4; MM.1R, 1 µM): -24%
6 | GGCTGAAACGGTCAGC (sugars k3 d10 k3, PS) |  |  | target mRNA inhibition (IRF4; MM.1R, 1 µM): -27%
7 | GGGTAAGCACTGAGGC (sugars k3 d10 k3, PS) | 61 |  | 
8 | TCCACTGTTAAAGCAG (sugars k3 d10 k3, PS) | 55 |  | 
9 | GAACGAGGTAAATCTT (sugars k3 d10 k3, PS) | 56 |  | 
10 | GCCCGCAAAAGAAACG (sugars k3 d10 k3, PS) |  |  | target mRNA inhibition (IRF4; MM.1R, 1 µM): 2%
11 | CAGGTAAGGGCCCCGT (sugars k3 d10 k3, PS) | 70 |  | 
12 | CTTGCCAGTGGTGGCC (sugars k4 d8 k4, PS) | -9 |  | 
13 | TGAGCACTCTTACTCC (sugars k3 d10 k3, PS) |  |  | target mRNA inhibition (IRF4; MM.1R, 1 µM): -6%
14 | CCTTACCTCGCCCTGG (sugars k3 d10 k3, PS) |  |  | target mRNA inhibition (IRF4; MM.1R, 1 µM): -31%
15 | TGGCTAGCAGAGGTTC (sugars k3 d10 k3, PS) | 56 |  | target mRNA inhibition (IRF4; SK-MEL-28, 0.185 µM): 1%; target mRNA inhibition (IRF4; SK-MEL-28, 5 µM): 62%; target mRNA inhibition (IRF4; SK-MEL-28, 15 µM): 85%
16 | TATACATTGAGGCATA (sugars k3 d10 k3, PS) |  |  | target mRNA inhibition (IRF4; MM.1R, 1 µM): 7%
17 | TCCCACTGGGCTTTGT (sugars k3 d10 k3, PS) | 32 |  | 
18 | CACATCAATGTTTTAG (sugars k2 d9 e3 k2, PS) |  |  | target mRNA inhibition (IRF4; MM.1R, 1 µM): 12% and 11%
19 | GCTAGATAGCATTCTT (sugars k3 d10 k3, PS) | 56 |  | 
20 | AAAGATGCCAGAGGGC (sugars k3 d10 k3, PS) | 23 |  | 
21 | CTCCATCAATCATGAT (sugars k3 d10 k3, PS) | 33 |  | 
22 | GCAGTGATGTCAGGTT (sugars kdddddddddkekeke, PS) |  |  | target mRNA inhibition (IRF4; MM.1R, 1 µM): 33%
23 | ACGCAATCTTCTGCTG (sugars k3 d10 k3, PS) | 52 |  | 
24 | GGCCTTTACAAAGAAC (sugars k3 d10 k3, PS) | -19 |  | 
25 | GGCCTTGGAGCCCAAA (sugars k3 d10 k3, PS) | 20 |  | 

Row | Sequence | target mRNA inhibition (IRF4; SK-MEL-28, 4 µM) [%] | target mRNA inhibition (HSD17B13; 1 µM) | further results
26 | ACTGGGTACATGGCAG (sugars k3 d10 k3, PS) | 59 |  | 
27 | CACTGGCATCGAGACG (sugars k3 d10 k3, PS) | 61 |  | 
28 | ACATACCTACAAGCAG (sugars k3 d10 k3, PS) | 45 |  | 
29 | TGGAAACTCCTCTCCA (sugars k3 d10 k3, PS) | 16 |  | 
30 | GACAGTGACTTGCATC (sugars kddddddddddkekek, PS) |  |  | target mRNA inhibition (IRF4; MM.1R, 1 µM): 8%
31 | GCATCTCTAAAGAATG (sugars k3 d10 k3, PS) | 61 |  | 
32 | AATAGCCAGTACAGTT (sugars kkdddddddddkekek, PS) |  | 36% | 
33 | GACATAACTACTTCAG (sugars k3 d10 k3, PS) |  | 66% | 
34 | CACATATGTGAAGAGC (sugars kkdddddddddkekek, PS) |  | 53% | 
35 | AAATAGAGTCGGTCAC (sugars kkdddddddddkekek, PS) |  | 50% | 
36 | TGGATTACATACAAGA (sugars k3 d10 k3, PS) |  | 68% and 50% | target mRNA inhibition (HSD17B13; 0.02 µM): 0%; target mRNA inhibition (HSD17B13; 0.078 µM): 0%; target mRNA inhibition (HSD17B13; 0.313 µM): 21%; target mRNA inhibition (HSD17B13; 1.25 µM): 58%; target mRNA inhibition (HSD17B13; 5 µM): 87%
37 | GAAGTTCTGATGTCAG (sugars k3 d10 k3, PS) |  | 0% | 
38 | GCAATAGTACTATAGT (sugars k3 d10 k3, PS) |  | 39% | 
39 | TTACGACTTCATCTGT (sugars k3 d10 k3, PS) |  | 36% | 
40 | ACCAAGAGACACCACC (sugars k3 d10 k3, PS) |  | 41% | 
41 | GAAAACTCAGCCAGCA (sugars k3 d10 k3, PS) |  | 78% | target mRNA inhibition (HSD17B13; 0.02 µM): 0%; target mRNA inhibition (HSD17B13; 0.078 µM): 2%; target mRNA inhibition (HSD17B13; 0.313 µM): 51%; target mRNA inhibition (HSD17B13; 1.25 µM): 73%; target mRNA inhibition (HSD17B13; 5 µM): 75%
42 | GTATCTTATAAGACTA (sugars k3 d1 m1 d8 k3, PS) |  | 79% | target mRNA inhibition (HSD17B13; 0.02 µM): 13%; target mRNA inhibition (HSD17B13; 0.078 µM): 26%; target mRNA inhibition (HSD17B13; 0.313 µM): 39%; target mRNA inhibition (HSD17B13; 1.25 µM): 66%; target mRNA inhibition (HSD17B13; 5 µM): 84%
43 | TTTAGGGAGGTAGCTT (sugars k3 d10 k3, PS) |  | 24% | 
44 | CACAAGTAAGGTAAAG (sugars k3 d1 m1 d8 k3, PS) |  | 43% | 
45 | GCAGATTATTATGTGA (sugars k3 d10 k3, PS) |  | 59% | 
46 | AGACUTTGAGACTCTT (sugars k3 d1 m1 d8 k3, PS) |  | 48% | 
47 | TCATACCACATACCCA (sugars k3 d10 k3, PS) |  | 41% | 
48 | TTAGTATAGTTATCTT (sugars kkdddddddddkekek, PS) |  | 33% | 
49 | TGCTAGTGCCAAACCA (sugars k3 d10 k3, PS) |  | 78% | target mRNA inhibition (HSD17B13; 0.02 µM): 3%; target mRNA inhibition (HSD17B13; 0.078 µM): 9%; target mRNA inhibition (HSD17B13; 0.313 µM): 49%; target mRNA inhibition (HSD17B13; 1.25 µM): 58%; target mRNA inhibition (HSD17B13; 5 µM): 89%

Reference: the OligoGym collection
